Measured values from patent US9867794B2, “Regulation of osteopontin” (Pathologica LLC, priority 2007, dated 2018).

Tests used:
OPN RNA = test: OPN production inhibition assay in un-stimulated PBMC cultures, OPN RNA; type: cell-based; settings: 10 μM, harvested 1, 3 and 6 days
Procedure: (§1) 10 μM of each drug was added to un-stimulated PBMC cultures at time=0 and cells were harvested 1,3, and 6 days later for quantitative OPN RNA and protein production analysis.

OPN protein = test: OPN production inhibition assay in un-stimulated PBMC cultures, OPN protein; type: cell-based; settings: 10 μM
Procedure: as §1

CD14+/CD16+ cells [1] = test: Exogenous rOPN on macrophage yield, flow cytometry of PBMC cultures; type: cell-based, human; settings: 10 μg/ml rOPN
Procedure: To determine the role of exogenous recombinant human OPN (rOPN) in macrophage activation, 10 μg/ml rOPN(R&D Systems, Inc., Minneapolis, Minn.) was added to non-adherent PBMC cultures grown in complete or in serum free medium for 24 and 72 hours, and analyzed via flow cytometry. […] Shown in the upper right quadrant in FIG. 8 is the percentage of cells that are double positive for CD14 and CD16 surface markers.

CD14+/CD16+ cells [2] = test: Macrophage activation via flow cytometry, mononuclear cells cultured for 3 days; type: cell-based
Procedure: (§2) We investigated macrophage activation via flow cytometry and levels of pro- and anti-inflammatory cytokines in cell culture supernatants of mononuclear cells. 10 μg/ml recombinant human OPN (rOPN) was added to mononuclear cells cultured for 3 days, with and without fetal bovine serum (FBS) in cell culture medium, and analyzed via flow cytometry. […] An increase in CD14+/CD16+ cells was also observed with cells cultured in serum free medium and rOPN in comparison to control. To observe the effects of OPN neutralizing antibody on macrophage activation, 10 μg of antibody was added to cultures for 3 days. […] We also investigated the levels of pro- and anti-inflammatory cytokines in all cell culture supernatants of each time point. On average, IL-6, IL-1β, TNF-α, IL-10, and IL-12p40 were at least 50-fold higher with rOPN at 24 and 72 hours in all culture conditions in comparison to control.

[3] = tested on: pro- and anti-inflammatory cytokines; test: Cytokine levels in cell culture supernatants of mononuclear cells; type: cell-based; settings: rOPN
Procedure: as §2

[4] = 24 and 72 hours, all culture conditions, on average
[5] = any time point and culture condition

CCNCCCNC/C=C\CNCCCNCC.Cl.Cl.Cl.Cl [SL47, N,N′-bis(3-ethylaminopropyl)-cis-but-2-ene-1,4-diamine tetrahydrochloride]
OPN RNA expression (OPN RNA): inhibited in a time dependant manner
OPN protein production (OPN protein): Complete inhibition

CCNCCCCNC[C@@H]1C[C@H]1CNCCCCNCC [SL93, N,N′-(cyclopropane-1,2-diylbis(methylene))bis(N4-ethylbutane-1,4-diamine)]
OPN RNA expression (OPN RNA): inhibited in a time dependant manner
OPN protein production (OPN protein): Complete inhibition

rOPN: exogenous recombinant human OPN (R&D Systems, Inc.)
accumulation of CD14+/CD16+ cells vs control (CD14+/CD16+ cells [1]; complete medium, 24 hours): no significant accumulation
increase in CD14+/CD16+ cells vs control (CD14+/CD16+ cells [1]; complete medium, 72 hours): 11 fold
increase in CD14+/CD16+ cells vs serum free control (CD14+/CD16+ cells [1]; serum free, 72 hours): 2.97 fold
accumulation of CD14+/CD16+ cells vs FBS-only control (CD14+/CD16+ cells [2]; 10 μg/ml rOPN and FBS, 24 hours): no significant accumulation
increase in CD14+/CD16+ cells vs control (CD14+/CD16+ cells [2]; 10 μg/ml rOPN, 72 hours): 12 fold
CD14+/CD16+ cells vs control (CD14+/CD16+ cells [2]; 10 μg/ml rOPN, serum free medium): increase
IL-1β level vs control [3, 4]: at least 50 fold
IL-6 level vs control [3, 4]: at least 50 fold
IL-10 level vs control [3, 4]: at least 50 fold
IL-12p40 level vs control [3, 4]: at least 50 fold
TNF-α level vs control [3, 4]: at least 50 fold
IL-4 level vs control [3, 5]: no significant difference
IL-12p70 level vs control [3, 5]: no significant difference

B1: MCSF: growth factor MCSF (protein, UniProt P09603 33-554, looked up)
Macrophage colony-stimulating …: EEVSEYCSHMIGSGHLQSLQRLIDSQMETSCQITFEFVDQEQLKDPVCYLKKAFLLVQDIMEDTMRFRDNTPNAIAIVQLQELSLRLKSCFTKDYEEHDKACVRTFYETPLQLLEKVKNVFNETKNLLDKDWNIFSKNCNNSFAECSSQDVVTKPDCNCLYPKAIPSSDPASVSPHQPLAPSMAPVAGLTWEDSEGTEGSSLLPGEQPLHTVDPGSAKQRPPRSTCQSFEPPETPVVKDSTIGGSPQPRPSVGAFNPGMEDILDSAMGTNWVPEEASGEASEIPVPQGTELSPSRPGGGSMQTEPARPSNFLSASSPLPASAKGQQPADVTGTALPRVGPVRPTGQDWNHTPQKTDHPSALLRDPPEPGSPRISSLRPQGLSNPSTLSAQPQLSRSHSSGSVLPLGELEGRRSTRDRRSPAEPEGGPASEGAARPLPRFNSVPLTDTGHERQSEGSFSPQLQESVFHLLVPSVILVLLAVGGLLFYRWRRRSHQEPQRADSPLEQPEGSPLTQDDRQVELPV
OPN RNA expression (OPN RNA): no effect
